The record followed here is PMC4379058, “The Biochemical Properties of the Arabidopsis Ecto-Nucleoside Triphosphate Diphosphohydrolase AtAPY1 Contradict a Direct Role in Purinergic Signaling” (PLoS ONE, 2015).

Assay in all cases: discontinuous molybdate phosphate release assay
One experiment has as its target T1, AtAPY1-GFP (Arabidopsis thaliana, UniProt Q9SQG2).
T1 construct: gene APY1; full-length, C-terminal GFP fusion (GFP from residue 472; 80 kDa), 35S transgenic Arabidopsis seedlings, immobilised on anti-GFP plate
T1 sequence (Q9SQG2 1-471): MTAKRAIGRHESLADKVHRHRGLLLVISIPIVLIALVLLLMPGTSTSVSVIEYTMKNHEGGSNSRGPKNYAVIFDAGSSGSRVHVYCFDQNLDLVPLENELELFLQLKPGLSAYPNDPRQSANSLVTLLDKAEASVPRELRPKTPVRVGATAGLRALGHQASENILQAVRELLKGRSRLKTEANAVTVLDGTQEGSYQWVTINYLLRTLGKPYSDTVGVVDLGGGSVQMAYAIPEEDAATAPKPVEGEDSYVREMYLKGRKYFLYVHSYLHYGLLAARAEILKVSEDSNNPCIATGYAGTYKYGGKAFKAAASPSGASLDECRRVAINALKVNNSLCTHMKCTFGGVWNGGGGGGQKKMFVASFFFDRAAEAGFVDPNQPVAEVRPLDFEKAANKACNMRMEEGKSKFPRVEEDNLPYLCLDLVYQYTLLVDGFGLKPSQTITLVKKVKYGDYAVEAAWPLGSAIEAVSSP
The format is biochemical. The note with it: 3 mM UDP substrate, 2 mM MgCl2, pH 6.5, 30°C; immobilised enzyme.

The target of experiment [1] is T2, AtAPY1 (Arabidopsis thaliana, UniProt Q9SQG2).
T2 sequence (Q9SQG2 1-471): T1 sequence (Q9SQG2 1-471)
More on the design: gene APY1. The following applies: 3 mM UDP substrate, 1 mM MgCl2, pH 6.5, 30°C.

The target of the next experiment is T3, AtAPY1-δTM (Arabidopsis thaliana, UniProt Q9SQG2).
T3 construct: gene APY1; 45 kDa theoretical
T3 sequence (Q9SQG2 67-470): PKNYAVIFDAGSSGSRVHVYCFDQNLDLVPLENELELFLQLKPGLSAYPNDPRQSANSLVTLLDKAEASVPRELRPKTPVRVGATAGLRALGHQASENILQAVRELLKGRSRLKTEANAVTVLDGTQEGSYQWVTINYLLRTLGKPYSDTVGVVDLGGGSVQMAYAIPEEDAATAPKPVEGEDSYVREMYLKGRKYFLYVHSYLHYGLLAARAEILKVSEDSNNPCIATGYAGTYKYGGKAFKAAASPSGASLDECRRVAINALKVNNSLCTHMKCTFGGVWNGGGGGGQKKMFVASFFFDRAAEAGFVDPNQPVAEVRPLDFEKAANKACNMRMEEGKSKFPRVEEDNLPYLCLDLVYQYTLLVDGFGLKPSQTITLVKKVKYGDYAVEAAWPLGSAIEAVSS
In kind it is biochemical.

The target of experiment [2] is T2, AtAPY1. In kind it is biochemical. More on the design: gene APY1; full-length with TM, C-terminal linker and His6 tag, HEK293 cells; Ni-NTA elution fraction, not enriched; 52 kDa theoretical.

As a reminder, the % inhibition is the percentage by which the read-out fell short of the control. A lower % inhibition goes with a weak effect. As for `[O]=[V]([OH])([OH])[OH]` [vanadate], the “% inhibition” value at AtAPY1-GFP is recorded as “The same inhibition pattern was found for AtAPY1-GFP”. Further, the “% inhibition at 1 mM” value on AtAPY1 [1] is on record as 54%.
Take `O=c1ccn([C@@H]2O[C@H](COP(=O)(O)OP(=O)(O)O)[C@@H](O)[C@H]2O)c(=O)[nH]1` [UDP]: the “discontinuous molybdate phosphate release assay” value on AtAPY1-δTM is “AtAPY1 with or without TM is limited to the nucleotides GDP, IDP and UDP”; at AtAPY1 [2], “only GDP, IDP and UDP were hydrolyzed by AtAPY1”.
As for `Nc1nc2c(ncn2[C@@H]2O[C@H](COP(=O)(O)OP(=O)(O)O)[C@@H](O)[C@H]2O)c(=O)[nH]1` [GDP], the “discontinuous molybdate phosphate release assay” value is “AtAPY1 with or without TM is limited to the nucleotides GDP, IDP and UDP” on AtAPY1-δTM; “only GDP, IDP and UDP were hydrolyzed by AtAPY1” at AtAPY1 [2].
